One data set has as its system HeLa S3 cells. Put plainly: Protective effect of peptides on apoptosis and necrosis in the presence of camptothecin (Annexin-V FITC / PI flow cytofluorimetry). It counts as cell-based, human. Conditions: HeLa cell culture, 24 hours. From the text: (§1) The experiments to study the effect of peptides on apoptosis and necrosis involved the use of reagents in the ApoTarget Annexin-V FITC Apoptosis Kit (Invitrogen, CIIIA). In addition to Annexin-V, marked by the FITC fluorescent stain, the ApoTarget Annexin-V FITC Apoptosis Kit contains propidium iodide (PI), a dye. PI can permeate only those cells whose cytoplasmic membrane is damaged, which is a characteristic sign of an advanced stage of apoptosis or necrosis. Having permeated cells with damaged cell membrane, PI binds itself to the DNA. The «red» fluorescence of resulting complexes is identified with a flow cytofluorimeter.
(§2) Therefore, the procedure of double staining (Annexin-V FITC plus PI) and the process of flow cytofluorimetry can be used to distinguish 3 cell populations and determine their percentage relationship: 1) non-apoptotic cells (Annexin-V-negative and PI-negative), 2) cells at an early stage of apoptosis (Annexin-V-positive and PI-negative), 3) necrotic cells or cells at an advanced stage of apoptosis (Annexin-V- positive and PI- positive). An increase in the percentage of apoptotic and necrotic cells can serve as a measure of how the compounds added to the culture medium act on these processes. Camptothecin (Camptothecin, Sigma, CIIIA), which is recommended by the manufacturer, was used as control in the experiments because of its pronounced ability to induce apoptosis and necrosis of cells, especially tumor ones.
(§3) Peptide solutions in sterile PBS with concentrations of 1 mg/ml were prepared immediately before the experiments to study the peptides' effect on apoptosis and necrosis. The same solutions that were stored in sterile test tubes at +4°C were used to study the proliferation activity. Working dilutions of peptides in the cell cultivation medium were prepared on the day of each experiment. A sterile plastic 96-well plate (Corning, USA) was used for this purpose. The dilutions were prepared so that the introduction of 25 µl of each working dilution in an experimental well with cultivated cells would result in final concentrations of peptides equal to 400, 200, 100 and 50 ng/ml.
(§4) The HeLa S3 and NIH 3T3 cells were cultivated with the use of reagents manufactured by Invitrogen (USA) and plastic vials, plates, pipettes and filters of Corning (USA). The cells were cultivated in DMEM, prepared with a dry concentrate dissolved in pyrogen-free distilled water (Millipore, USA). The medium contained 10 % FBS, 2 mM of glutamine and penicillin-streptomycin (diluted according to the vendor's recommendations). HeLa S3 and NIH 3T3 were grown in vials T150 at +37 °C in the atmosphere of 5.6 % CO2. The cells were constantly maintained in the logarithmic growth phase, to this end they were passed at least 2 times a week, with trypsin used to remove cells from the walls of the culture vials. Live cells were counted in a hemacytometer after staining the suspension aliquot with trypan blue.
(§5) The HeLa S3 and NIH 3T3 cells were removed from the surface of the culture vials and counted; the concentration was moved to 10^5 cell/ml, and the resulting suspensions were put in doses of 1 ml in the wells of a 24-well plate.
(§6) Having made sure on the following day that the cells adhered to the plate's surface, the culture medium was replaced with a fresh one in each well.
(§7) Camptothecin was added in the control wells (positive control - stimulation of apoptosis and necrosis) to the final concentration of 50 µM that had been determined in preliminary experiments with the NIH 3T3 and HeLa S3 cells. 25 µl of fresh culture medium were added in the control wells (negative control), 25 µl of working peptide dilutions were added in each experimental well (each working dilution - twice), as well as camptothecin in the same final concentration. Incubation was conducted at +37 °C. […]

Another data set has as its system NIH 3T3 cells. The description is as above. It counts as cell-based, mice. The note with it: NIH3T3 cell culture, 24 hours.
From the text: as §1, §2, §3, §4, §5, §6, §7

The nature of data set [1]: Stability of peptides in storage in solution (HPLC analysis). Conditions: 0.05 M ammonium acetate buffer, approx. 1 mg/ml.
Procedure: The peptides were dissolved in 0.05 M of an ammonium acetate buffer with pH 4.5 and pH 7.5 so that their concentrations achieved approximately 1 mg/ml. The solutions were sterilely filtered and kept in sterile, well-sealed vials. Upon expiration of the storage period the substances were analyzed with HPLC.
The target of another data set is T1, Annexin-V (Homo sapiens, UniProt P08758).
T1 sequence (P08758 1-320): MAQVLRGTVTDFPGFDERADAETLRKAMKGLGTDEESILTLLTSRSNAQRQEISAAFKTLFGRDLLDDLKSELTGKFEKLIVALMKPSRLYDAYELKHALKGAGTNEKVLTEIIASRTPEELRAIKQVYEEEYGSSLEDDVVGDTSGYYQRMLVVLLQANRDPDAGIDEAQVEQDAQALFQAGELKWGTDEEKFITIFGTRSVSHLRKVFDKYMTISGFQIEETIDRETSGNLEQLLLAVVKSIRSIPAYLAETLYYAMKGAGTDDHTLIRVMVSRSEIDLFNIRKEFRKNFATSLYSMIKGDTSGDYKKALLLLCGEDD
The note with it: calcium-dependent phospholipid binding; cited from earlier work.

Where [2] appears, read: peptide 50 ng/ml + camptothecin 50 µM.
[3] abbreviates: peptide 100 ng/ml + camptothecin 50 µM.
[4] abbreviates: peptide 200 ng/ml + camptothecin 50 µM.
Setting [5] is: peptide 400 ng/ml + camptothecin 50 µM.

Residues, ends and D or L forms follow the SMILES beside them.

As a reminder, the Kd is the constant that tells how readily two partners part at equilibrium.

`C[C@H](N)C(=O)N[C@@H](CC(=O)O)C(=O)N[C@@H](CCC(=O)O)C(=O)N[C@@H](CCCNC(=N)N)C(=O)O` [ADER, H-Ala-Asp-Glu-Arg-OH] (H-ADER-OH): the Apoptosis in the data set on HeLa S3 cells (setting [2]) turned out to be 2%; in the data set with HeLa S3 cells (setting [3]), 2.1%; in the data set with HeLa S3 cells (setting [4]) it was 1.5%; in the data set with HeLa S3 cells (setting [5]), 2.3%; in the data set with NIH 3T3 cells (setting [2]) it was 3%; in the data set with NIH 3T3 cells (setting [3]), 2.2%. The Apoptosis with NIH 3T3 cells (setting [4]) worked out at 2.5%; with NIH 3T3 cells (setting [5]), 4.1%. Moreover, the Necrosis in the data set on HeLa S3 cells (setting [2]) came to 5.2%; in the data set on HeLa S3 cells (setting [3]), 4.1%; with HeLa S3 cells (setting [4]), 4%; in the data set on HeLa S3 cells (setting [5]), 4%; with NIH 3T3 cells (setting [2]), 4%; in the data set with NIH 3T3 cells (setting [3]), 3.1%. Further, the Necrosis in the data set with NIH 3T3 cells (setting [4]) worked out at 3.5%; in the data set on NIH 3T3 cells (setting [5]) it was 5%. The “Peptide stability in storage” value in data set [1] (1hour, pH 4.5, 22°C) was determined as 98.1; in data set [1] (1hour, pH 7.5, 22°C) it was 98.1; in data set [1] (10 days, pH 4.5, 22°C), 98.0; in data set [1] (10 days, pH 7.5, 22°C), 98.0; in data set [1] (30 days, pH 4.5, 22°C), 97.9; in data set [1] (30 days, pH 7.5, 22°C), 97.7. The “Peptide stability in storage” value is recorded as 98.0 in data set [1] (60 days, pH 4.5, 22°C); 97.7 in data set [1] (60 days, pH 7.5, 22°C); 97.8 in data set [1] (90 days, pH 4.5, 22°C); 97.6 in data set [1] (90 days, pH 7.5, 22°C).
In the case of phosphatidylcholine, the Kd at Annexin-V is 0.5 nM.
